Here are results for 26 compounds from patent US20230015647A1, “INHIBITORS OF HISTONE DEMETHYLASES (PFI-63 AND PFI-90) FOR THE TREATMENT OF CANCER AND FOR THE INHIBITION OF HISTONE DEMETHYLASE IN CELLS” (The United States of America,as represented by the …, priority 2019, published 2023).

In experiment [1] the test system is truncated KDM3B catalytic domain. Description: WaterLOGSY NMR binding assay. The note with it: 100 μM. An excerpt: (§1) A WaterLOGSY assay and a Carr-Purcell Meiboom-Gill (CPMG) based assay were used to investigate protein-ligand binding affinity between PFI-90 and a truncated KDM3B catalytic domain.
In traditional proton NMR experiments, a series of peaks are generated that represent the structure of a solitary small molecule, whereas the WaterLOGSY experiment examines the behavior of a small molecule's peaks in the presence of a potential target. This is achieved by observing differences in interaction between a small molecule interacting with water co-occupying a binding cleft on a target as compared to water dispersed freely in solution. The experiment then depicts the ratio of bound to unbound small molecule by phasing proton NMR spectra on the X-axis in opposing directions depending on the magnitude of that ratio (i.e., increasing ratios above 1 will phase positively, decreasing ratios below 1 will phase negatively).

For experiment [2] the test system is unchanged. Description: CPMG relaxation editing NMR binding assay. The following applies: 100 μM.
From the text: as §1
CPMG (Carr-Purcell-Meiboom-Gill) Relaxation Editing Proton NMR is another drug-discovery NMR experiment that may be used in conjunction with WaterLOGSY to orthogonally validate the presence of a reversible binding interaction of mild to high affinity from a small molecule to a label-free target. In contrast to WaterLOGSY, all peaks are phased above the X-axis. Instead, this experiment filters out the proportion of peak height that is contributed from the quantity of small molecule bound to a target of high molecular weight (e.g., a protein). Once the attenuation of peak height is equivalent to a 20% reduction, the compound is said to bind, with an increasing ratio of bound to unbound small molecules manifesting in increasing signal attenuation.

Experiment [3] has as its system PAX3-FOXO1 fusion transcription factor. Description: RH4 ALK-Luc luciferase reporter assay (PAX3-FOXO1 super enhancer activity). Type of experiment: cell-based, human. The note with it: RH4 ALK-Luc reporter. On the procedure: The screen was performed using two derivatives of RH4 FP-RMS cells: • (1) “ALK-Luc cells”—RH4 cells expressing a pGreenFire green fluorescent protein (GFP)-luciferase reporter (SEQ ID NO: 1) controlled by the PAX3-FOXO1-dependent intronic ALK super enhancer (for reporting on PAX3-FOXO1 activity) (FIGS. 1 and 2); and • (2) “CMV-Luc cells”—control RH4 cells in which the reporter is transcribed from a constitutively active cytomegalovirus (CMV) promoter. An Example of visualization via the ALK-Luc reporter is depicted in FIG. 3.
The cells were enriched for reporter expression levels and used for assay development. A high throughput screening assay was developed after optimization of cell seeding density, length of incubation of cells prior to and post treatment with test compounds, and effect of passaging among other factors. The screen was designed to identify compounds that suppressed PAX3-FOXO1 activity without disrupting viability (at a short time points) or general transcription. The assay simultaneously monitors the function of the PAX3-FOXO1 super enhancer (also referred to as “ALK super enhancer”), general transcriptional activity as well as cell viability.
The visual summary of the screening strategy is illustrated in FIG. 4. ALK-Luc cells were seeded in both white-walled and white-bottomed 384-well plates (Perkin Elmer, Cat #6007658) for luciferase assays and in clear 384-well plates (Perkin Elmer, Cat #6007688) for viability assay (XTT reduction) by transferring 27 μL of cell suspensions (seeding 3000 cells per well) into each well. The plates were then transferred into an incubator for 18-20 h. The CMV-Luc cells were similarly seeded into white plates and incubated.
A pure compound library of 62,643 compounds consisting of synthetic and natural products described previously (Grohar et al., J Natl. Cancer Inst., 103: 962-978 (2011)) was then used in a high throughput screening campaign to identify inhibitors of PAX3-FOXO1. Stock DMSO Solutions of these compounds were used to prepare 100 μM solutions in growth medium in 384-well plates also containing 16 wells each of a positive control (Actinomycin D, Sigma, Cat #A1410) and negative control (DMSO). Screening compounds along with the positive and negative controls were added to assay plates by transferring 3 μL of the prepared 100 μM dilutions using an automated liquid handler (Agilent, Bravo). Treated plates were incubated for 24 h. At the end of this period, treated plates were allowed to equilibrate to room temperature for 30 minutes. SteadyLite Plus luciferase assay reagent powder (PerkinElmer, Cat #6066759) was reconstituted in its buffer in parallel and was also allowed to equilibrate to room temperature.
After transferring 30 μL of the luciferase assay reagent using a liquid handler, plates were further incubated at room temperature for 10 minutes. Finally, luminescence measurements were carried out using a multi-label microplate reader (BMG, Pherastar FSX) set in luminescence mode. Cell viability was assessed by adding XTT reagent (10 μL per well) in clear plates containing treated ALK-Luc cells. XTT treated plates were read using a plate reader in absorbance mode at 450 nm (PerkinElmer, Envision) after further incubation for 1 hour to allow cells to metabolize XTT to a colored formazan product. Luminescence and XTT absorbance values were normalized to the average of the negative controls on each plate and were calculated as a percentage of these controls. Performance of the screening assay was routinely monitored via calculation of Z-factor (Zhang et al., J. Biomol. Screen., 4: 67-73 (1999)) with Z′ for all plates found to be >0.7.
RH4 ALK-Luc and RH4 CMV-Luc cells were seeded into separate white-walled and bottomed 384-well plates and were incubated and treated with screen hits and epigenome compounds. The highest test concentration of these compounds (10-fold) were prepared from DMSO stock solutions via dilution in medium. […]
On the technique in general: A reporter such as luciferase makes a cellular process visible.

Entries after “also recorded” stand apart in the source; their conditions may differ.

As to `O=C(O)CCC(=O)C(=O)O` [Compound 2-OG, 2-oxoglutaric acid, reference compound], the “binding (WaterLOGSY)” value in experiment [1] is “did not bind; also recorded: does not bind”. In experiment [2], the “binding (CPMG)” value was “did not bind; also recorded: does not bind”.
On to `O=C(NNC(=O)c1ccccn1)c1ccccc1` [PFI-65], for which, in experiment [3], the “Avg Absorbance @ 1 μM, ALK-Luc” value is given as 103.5 and the “Avg Absorbance @ 10 μM, ALK-Luc” value is 109.2.
The matching figures for `NNC(=O)c1cccc(C(=O)NN)n1` [PFI-66]: 91.6 and 91.3.
For `Cc1cccc(C(=O)NNC(=O)c2cccc(C)c2)c1` [PFI-67] the same measures were 94.6 and 112.8.
For `CC(=O)NNC(=O)c1ccccn1` [PFI-68] the same measures were 95.0 and 98.0.
Regarding `CCC(=O)NNC(=O)c1ccccn1` [PFI-69], in experiment [3], the “Avg Absorbance @ 1 μM, ALK-Luc” value is 104.3 and the “Avg Absorbance @ 10 μM, ALK-Luc” value turned out to be 94.4.
The matching figures for `O=CNNC(=O)c1ccccn1` [PFI-70]: 99.7 and 93.3.
`NNC(=O)c1ccc(C(=O)NN)nc1` [PFI-71]: in experiment [3], the “Avg Absorbance @ 1 μM, ALK-Luc” value is listed as 100.1 and the “Avg Absorbance @ 10 μM, ALK-Luc” value amounted to 108.6.
With `O=C(NNC(=O)c1cccc(C(=O)NNC(=O)c2ccc(Cl)c(Cl)c2)n1)c1ccc(Cl)c(Cl)c1` [PFI-72], the “Avg Absorbance @ 10 μM, ALK-Luc” value in experiment [3] is listed as 91.1.
As for `Cc1cccc(C(=O)NNC(=O)c2ccccc2)c1` [PFI-73], in experiment [3], the “Avg Absorbance @ 1 μM, ALK-Luc” value is reported as 98.3 and the “Avg Absorbance @ 10 μM, ALK-Luc” value turned out to be 122.8.
For `CCCC(=O)NNC(=O)c1ccccn1` [PFI-74] the same measures were 102.4 and 94.7.
The matching figures for `Cc1nc(C)c(C(=O)NNC(=O)c2ccccc2)cc1C(=O)NNC(=O)c1ccccc1` [PFI-75]: 100.2 and 110.5.
As to `CC(=O)NNC(=O)c1cnccn1` [PFI-76], in experiment [3], the “Avg Absorbance @ 1 μM, ALK-Luc” value worked out at 105.6 and the “Avg Absorbance @ 10 μM, ALK-Luc” value was 100.2.
The matching figures for `O=CNNC(=O)c1cnccn1` [PFI-77]: 95.8 and 96.5.
For `Cc1nc(C)c(C(=O)NN)cc1C(=O)NN` [PFI-78] the same measures were 100.3 and 95.3.
The matching figures for `NNC(=O)c1ccc(C(=O)NN)o1` [PFI-79]: 97.0 and 97.6.
Take `CC(=O)NNC(=O)c1ccc2ccccc2n1` [PFI-80]: in experiment [3], the “Avg Absorbance @ 1 μM, ALK-Luc” value is 90.1 and the “Avg Absorbance @ 10 μM, ALK-Luc” value turned out to be 96.6.
For `CCC(CC)C(=O)NNC(=O)c1ccccn1` [PFI-81], in experiment [3], the “Avg Absorbance @ 1 μM, ALK-Luc” value worked out at 97.7 and the “Avg Absorbance @ 10 μM, ALK-Luc” value turned out to be 89.1.
On to `O=C(NNC(=O)c1ccccn1)c1ccccn1` [PFI-82], for which, in experiment [3], the “Avg Absorbance @ 1 μM, ALK-Luc” value is listed as 112.4 and the “Avg Absorbance @ 10 μM, ALK-Luc” value was 107.1.
For `O=C(Cc1ccc(Cl)cc1)NNC(=O)c1ccccn1` [PFI-83] the same measures were 97.8 and 32.2.
As for `Cc1cc(C)cc(OCC(=O)NNC(=O)c2ccccn2)c1` [PFI-84], in experiment [3], the “Avg Absorbance @ 1 μM, ALK-Luc” value turned out to be 99.4 and the “Avg Absorbance @ 10 μM, ALK-Luc” value is 56.5.
For `CS(=O)(=O)NCCc1ccc(C(=O)NNC(=O)c2ccccn2)cc1` [PFI-85] the same measures were 99.7 and 100.2.
For `Cc1cc(C)cc(C(=O)NNC(=O)c2ccc(O)cc2)c1` [PFI-86] the same measures were 97.7 and 84.1.
The matching figures for `COCc1cccc(C(=O)NNC(=O)c2ccccn2)c1` [PFI-87]: 115.5 and 120.4.
For `Cc1cccc(C(=O)NNC(=O)c2ccccc2)c1` [PFI-88], in experiment [3], the “Avg Absorbance @ 1 μM, ALK-Luc” value is 91.6 and the “Avg Absorbance @ 10 μM, ALK-Luc” value is 121.4.
For `CC(C)CC(=O)NNC(=O)c1ccco1` [PFI-89] the same measures were 95.1 and 92.5.
